# What was measured:
# [1] = type: physicochemical; conditions: acid environment / stomach
# [2] = human body; cited from earlier work
SMILES,removal of bound radium [1],rate of metabolism versus ethanol [2]
O=Cc1ccc2c(c1)OCC(=O)N1CCOCCOCCN(CCOCCOCC1)C(=O)CO2 [CE],"instable in the stomach, stable in the rest of the body",–
CO [Methanol],–,substantially more slowly

# From patent US5053216A, “Radioactive Jomol, its derivatives, processes for the production of these compounds, their use and product” (priority 1985, dated 1991)
